# Measurements reported in US12653796B2, “Compounds for use (in particular RIPA-56) in the prevention and/or treatment of non-alcoholic fatty liver disease” (SORBONNE UNIVERSITE, priority 2019, dated 2026).
# Legend:
# RIPK1 = assay: ELISA of RIPK1 released in supernatant of L929 cells exposed to TNFα; type: cell-based, murine; conditions: 20 μM, 2 h, then TNFα (25 ng/mL) 6 h
# Experimental: FIG. 12. […] Results are shown as mean±SEM of six replicates.
# L929 cells (LGC Standards, Molsheim, France), were cultured in Dulbecco's modified Eagle's medium (DMEM) (ThermoFisher, Massachusetts, USA) supplemented with 10% fetal bovine serum (Eurobio, Courtaboeuf, France), penicillin (100 IU/ml), streptomycin (0.1 mg/ml), and L-glutamine (0.03%) (ThermoFisher). […] AML-12 (alpha mouse liver-12) hepatocytes (LGC Standards) were cultured in DMEM/F12 Medium (ThermoFisher) supplemented with 10% fetal bovine serum (Eurobio), 10 μg/ml insulin, 5.5 μg/ml transferrin, 5 ng/ml selenium and 40 ng/ml dexamethasone (Sigma, Missouri, USA). AML-12 hepatocytes were stimulated with insulin (#I0516, 10 nM; Sigma) for 15 minutes.
# Protein concentrations of human RIPK1 (SEE640Hu; Could-Clone Corp., Texas, USA), human MLKL (SER645Hu; Could-Clone Corp.) and murine RIPK1 (CSB-EL019735MO; Cusabio, Texas, USA) were determined by an ELISA kit according to the manufacturer's instructions.
# [1] = molecular target: T1, receptor-interacting protein kinase 1 (RIPK1) (Homo sapiens, UniProt Q13546); conditions: Ren et al., J Med Chem 2017; cited from earlier work
# T1 sequence (Q13546 1-671): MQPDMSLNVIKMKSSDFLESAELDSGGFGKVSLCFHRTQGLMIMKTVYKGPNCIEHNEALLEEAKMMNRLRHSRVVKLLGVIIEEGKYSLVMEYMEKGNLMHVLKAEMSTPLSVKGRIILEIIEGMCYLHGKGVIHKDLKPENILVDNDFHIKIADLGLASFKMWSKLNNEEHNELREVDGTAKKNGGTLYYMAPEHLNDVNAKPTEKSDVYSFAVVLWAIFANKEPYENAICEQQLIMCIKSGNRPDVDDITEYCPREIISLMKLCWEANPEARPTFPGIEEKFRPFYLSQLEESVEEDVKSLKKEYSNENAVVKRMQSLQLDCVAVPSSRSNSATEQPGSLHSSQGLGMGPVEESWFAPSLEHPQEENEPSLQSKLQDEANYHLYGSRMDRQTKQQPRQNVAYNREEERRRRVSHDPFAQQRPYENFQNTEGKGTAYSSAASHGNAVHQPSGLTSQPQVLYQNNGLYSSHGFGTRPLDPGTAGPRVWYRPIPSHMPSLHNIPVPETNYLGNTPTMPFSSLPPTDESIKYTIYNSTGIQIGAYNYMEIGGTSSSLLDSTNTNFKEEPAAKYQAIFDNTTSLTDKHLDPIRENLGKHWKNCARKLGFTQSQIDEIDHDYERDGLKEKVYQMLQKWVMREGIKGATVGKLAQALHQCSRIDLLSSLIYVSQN
smiles,measurement,setting,value
"CCC(C)(C)C(=O)N(O)Cc1ccccc1 [RIPA-56, N-Benzyl-N-hydroxy-2,2-dimethylbutanamide]",RIPK1 in the supernatant,RIPK1,undetectable
same,RIPK1 inhibitor profile,[1],selective and metabolically stable inhibitor
